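96-well plates; 48 h exposure; 5 concentrations. Endpoints by linear interpolation between flanking doses. Not reached: highest tested concentration assigned. Here, GI50 denotes the concentration required for 50% inhibition of growth. TGI marks complete inhibition of growth.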
How the values were obtained:
Test in all cases: DTP human tumour cell line panel, 48 h
KM12 colon = tested on: KM12 colon
SF-268 CNS = tested on: SF-268 CNS
ACHN renal = tested on: ACHN renal
SF-295 CNS = tested on: SF-295 CNS
PC-3 prostate = tested on: PC-3 prostate
HOP-62 NSCLC = tested on: HOP-62 NSCLC
IGROV1 ovarian = tested on: IGROV1 ovarian
RPMI-8226 leukemia = tested on: RPMI-8226 leukemia
OVCAR-8 ovarian = tested on: OVCAR-8 ovarian
786-0 renal = tested on: 786-0 renal
SF-539 CNS = tested on: SF-539 CNS
SN12C renal = tested on: SN12C renal
HS 578T breast = tested on: HS 578T breast
A549 NSCLC = tested on: A549 NSCLC
NCI-H23 lung = tested on: NCI-H23 lung
MDA-MB-435 = tested on: MDA-MB-435
NCI-H522 lung = tested on: NCI-H522 lung
K-562 leukemia = tested on: K-562 leukemia
A498 renal = tested on: A498 renal
MDA-MB-231 breast = tested on: MDA-MB-231 breast
HT29 colon = tested on: HT29 colon
U251 CNS = tested on: U251 CNS
SNB-75 CNS = tested on: SNB-75 CNS
TK-10 renal = tested on: TK-10 renal
NCI-H226 lung = tested on: NCI-H226 lung
SK-OV-3 ovarian = tested on: SK-OV-3 ovarian
CAKI-1 renal = tested on: CAKI-1 renal
RXF 393 renal = tested on: RXF 393 renal
NCI/ADR-RES ovarian = tested on: NCI/ADR-RES ovarian
SK-MEL-2 melanoma = tested on: SK-MEL-2 melanoma
SNB-19 CNS = tested on: SNB-19 CNS
LOX IMVI melanoma = tested on: LOX IMVI melanoma
MOLT-4 leukemia = tested on: MOLT-4 leukemia
HCC-2998 colon = tested on: HCC-2998 colon
CCRF-CEM leukemia = tested on: CCRF-CEM leukemia
OVCAR-3 ovarian = tested on: OVCAR-3 ovarian
HCT-116 colon = tested on: HCT-116 colon
MALME-3M melanoma = tested on: MALME-3M melanoma
BT-549 breast = tested on: BT-549 breast
COLO 205 colon = tested on: COLO 205 colon
DU-145 prostate = tested on: DU-145 prostate
HOP-92 NSCLC = tested on: HOP-92 NSCLC
SR leukemia = tested on: SR leukemia
UACC-62 melanoma = tested on: UACC-62 melanoma
NCI-H460 lung = tested on: NCI-H460 lung
OVCAR-5 ovarian = tested on: OVCAR-5 ovarian
SK-MEL-5 melanoma = tested on: SK-MEL-5 melanoma
OVCAR-4 ovarian = tested on: OVCAR-4 ovarian
M14 melanoma = tested on: M14 melanoma
SK-MEL-28 melanoma = tested on: SK-MEL-28 melanoma
UACC-257 melanoma = tested on: UACC-257 melanoma
HCT-15 colon = tested on: HCT-15 colon
MCF7 breast = tested on: MCF7 breast
UO-31 renal = tested on: UO-31 renal
HL-60(TB) leukemia = tested on: HL-60(TB) leukemia
SW-620 colon = tested on: SW-620 colon

CCn1c(-c2nonc2N)nc2c(C#CC(C)(C)O)ncc(OC[C@H]3CCCNC3)c21
GI50 (KM12 colon): 4.54 µM
TGI (KM12 colon): 63.8 µM
GI50 (SF-268 CNS): 16.1 µM
TGI (SF-268 CNS): 37.4 µM
GI50 (ACHN renal): 25.7 µM
TGI (ACHN renal): > 100 µM
GI50 (SF-295 CNS): 0.794 µM
TGI (SF-295 CNS): 22 µM
GI50 (PC-3 prostate): 10.4 µM
TGI (PC-3 prostate): 70.8 µM
GI50 (HOP-62 NSCLC): 23.3 µM
TGI (HOP-62 NSCLC): 72.7 µM
GI50 (IGROV1 ovarian): 0.0876 µM
TGI (IGROV1 ovarian): 23.2 µM
GI50 (RPMI-8226 leukemia): 17.4 µM
TGI (RPMI-8226 leukemia): 50.5 µM
GI50 (OVCAR-8 ovarian): 16.1 µM
TGI (OVCAR-8 ovarian): 82.2 µM
GI50 (786-0 renal): 0.46 µM
TGI (786-0 renal): 16 µM
GI50 (SF-539 CNS): 0.313 µM
TGI (SF-539 CNS): 16.9 µM
GI50 (SN12C renal): 12.7 µM
TGI (SN12C renal): 51.1 µM
GI50 (HS 578T breast): 2.58 µM
TGI (HS 578T breast): 59.5 µM
GI50 (A549 NSCLC): 15.6 µM
TGI (A549 NSCLC): 62.3 µM
GI50 (NCI-H23 lung): 23.5 µM
TGI (NCI-H23 lung): > 96 µM
GI50 (MDA-MB-435): 13.7 µM
TGI (MDA-MB-435): 30.3 µM
GI50 (NCI-H522 lung): 12.2 µM
TGI (NCI-H522 lung): 33.2 µM
GI50 (K-562 leukemia): 11.4 µM
TGI (K-562 leukemia): > 89.2 µM
GI50 (A498 renal): 0.0469 µM
TGI (A498 renal): 0.584 µM
GI50 (MDA-MB-231 breast): 17.8 µM
TGI (MDA-MB-231 breast): 55.6 µM
GI50 (HT29 colon): 17.5 µM
TGI (HT29 colon): 51.5 µM
GI50 (U251 CNS): 0.533 µM
TGI (U251 CNS): 21.9 µM
GI50 (SNB-75 CNS): 0.0584 µM
TGI (SNB-75 CNS): 1.54 µM
GI50 (TK-10 renal): 2.03 µM
TGI (TK-10 renal): 42.6 µM
GI50 (NCI-H226 lung): 21.1 µM
TGI (NCI-H226 lung): 52.2 µM
GI50 (SK-OV-3 ovarian): 0.866 µM
TGI (SK-OV-3 ovarian): > 82.6 µM
GI50 (CAKI-1 renal): 32.7 µM
TGI (CAKI-1 renal): > 100 µM
GI50 (RXF 393 renal): 0.228 µM
TGI (RXF 393 renal): 11.6 µM
GI50 (NCI/ADR-RES ovarian): > 100 µM
TGI (NCI/ADR-RES ovarian): > 100 µM
GI50 (SK-MEL-2 melanoma): 7.57 µM
TGI (SK-MEL-2 melanoma): 23 µM
GI50 (SNB-19 CNS): 15.1 µM
TGI (SNB-19 CNS): 42.8 µM
GI50 (LOX IMVI melanoma): 17.8 µM
TGI (LOX IMVI melanoma): 45.6 µM
GI50 (MOLT-4 leukemia): 0.23 µM
TGI (MOLT-4 leukemia): 31.5 µM
GI50 (HCC-2998 colon): 21.2 µM
TGI (HCC-2998 colon): > 100 µM
GI50 (CCRF-CEM leukemia): 0.335 µM
TGI (CCRF-CEM leukemia): 47.2 µM
GI50 (OVCAR-3 ovarian): 6.92 µM
TGI (OVCAR-3 ovarian): 25.9 µM
GI50 (HCT-116 colon): 12.9 µM
TGI (HCT-116 colon): > 95.9 µM
GI50 (MALME-3M melanoma): 13.4 µM
TGI (MALME-3M melanoma): 30.1 µM
GI50 (BT-549 breast): 6.85 µM
TGI (BT-549 breast): 28.6 µM
GI50 (COLO 205 colon): 9.75 µM
TGI (COLO 205 colon): 26.3 µM
GI50 (DU-145 prostate): 12.9 µM
TGI (DU-145 prostate): 73.8 µM
GI50 (HOP-92 NSCLC): 9.73 µM
TGI (HOP-92 NSCLC): 36.8 µM
GI50 (SR leukemia): 12 µM
TGI (SR leukemia): 41.8 µM
GI50 (UACC-62 melanoma): 12.9 µM
TGI (UACC-62 melanoma): 28.2 µM
GI50 (NCI-H460 lung): 10.6 µM
TGI (NCI-H460 lung): 28.5 µM
GI50 (OVCAR-5 ovarian): 27.6 µM
TGI (OVCAR-5 ovarian): 58.4 µM
GI50 (SK-MEL-5 melanoma): 14.3 µM
TGI (SK-MEL-5 melanoma): 31.2 µM
GI50 (OVCAR-4 ovarian): 31.4 µM
TGI (OVCAR-4 ovarian): 92.2 µM
GI50 (M14 melanoma): 14.8 µM
TGI (M14 melanoma): 37.7 µM
GI50 (SK-MEL-28 melanoma): 11.7 µM
TGI (SK-MEL-28 melanoma): 27.1 µM
GI50 (UACC-257 melanoma): 20.8 µM
TGI (UACC-257 melanoma): 41.2 µM
GI50 (HCT-15 colon): 20.3 µM
TGI (HCT-15 colon): > 100 µM
GI50 (MCF7 breast): 1.05 µM
TGI (MCF7 breast): 22.9 µM
GI50 (UO-31 renal): > 38.7 µM
TGI (UO-31 renal): > 100 µM
GI50 (HL-60(TB) leukemia): 10.6 µM
TGI (HL-60(TB) leukemia): 32 µM
GI50 (SW-620 colon): 11.1 µM
TGI (SW-620 colon): > 100 µM

From PubChem BioAssay (NCI)
